Measured values reported in PubChem BioAssay AID330 (DTP/NCI, 2004).
Values joined by “and” are separate entries in the source; they are usually repeats but may differ in a detail not shown here. Identical values can stand only once. Toxic doses and inconclusive results are not listed.

System: P388 leukemia ip, CD2F1 mice, survival T/C
Experiment: NCI In Vivo Anticancer Drug Screen. Data for tumor model P388 Leukemia (intraperitoneal) in CD2F1 (CDF1) mice
Settings: endpoint: median survival time, higher = longer survival
Summary of the method: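 Mice carrying the transplanted tumor received test compound or vehicle. Survival was recorded in each group, and the value is the treated-group measurement divided by that of the vehicle-treated control group.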

[1] = dose: 200.0 mg/kg/injection, schedule: Q01DX001 (ip), vehicle: saline with Tween-80
[2] = dose: 400.0 mg/kg/injection, schedule: Q01DX001 (ip), vehicle: saline with Tween-80
[3] = dose: 100.0 mg/kg/injection, schedule: Q01DX009 (ip), vehicle: saline with Tween-80
[4] = dose: 100.0 mg/kg/injection, schedule: Q04DX003 (ip), vehicle: saline with Tween-80
[5] = dose: 200.0 mg/kg/injection, schedule: Q04DX003 (ip), vehicle: saline with Tween-80
[6] = dose: 400.0 mg/kg/injection, schedule: Q04DX003 (ip), vehicle: saline with Tween-80
[7] = dose: 50.0 mg/kg/injection, schedule: Q01DX005 (ip), vehicle: Klucel (hydroxypropylcellulose) (HPC)
[8] = dose: 100.0 mg/kg/injection, schedule: Q01DX005 (ip), vehicle: Klucel (hydroxypropylcellulose) (HPC)
[9] = dose: 200.0 mg/kg/injection, schedule: Q01DX005 (ip), vehicle: Klucel (hydroxypropylcellulose) (HPC)
[10] = dose: 60.0 mg/kg/injection, schedule: Q01DX005 (ip), vehicle: saline with Tween-80
[11] = dose: 120.0 mg/kg/injection, schedule: Q01DX005 (ip), vehicle: saline with Tween-80
[12] = dose: 50.0 mg/kg/injection, schedule: Q01DX009 (ip), vehicle: saline
[13] = dose: 100.0 mg/kg/injection, schedule: Q01DX009 (ip), vehicle: saline

## CCn1c2nc(=O)[nH]c(=O)c-2[n+]([O-])c2ccccc21
dose: 12.5 mg/kg/injection, schedule: Q01DX001 (ip), vehicle: saline with Tween-80
  T/C: 96 % of control
dose: 25.0 mg/kg/injection, schedule: Q01DX001 (ip), vehicle: saline with Tween-80
  T/C: 96 % of control
dose: 50.0 mg/kg/injection, schedule: Q01DX001 (ip), vehicle: saline with Tween-80
  T/C: 96 % of control

## CC(Cc1ccccc1)NN1CCOC(c2ccccc2)C1C (configuration not stated)
dose: 100.0 mg/kg/injection, schedule: Q04DX002 (ip), vehicle: saline
  T/C: 102 % of control
dose: 200.0 mg/kg/injection, schedule: Q04DX002 (ip), vehicle: saline
  T/C: 107 % of control
dose: 400.0 mg/kg/injection, schedule: Q04DX002 (ip), vehicle: saline
  T/C: 101 % of control

## Cc1nc(-c2ccccc2)nc2c1nc(Cc1ccccc1)n2Nc1ccccc1
dose: 100.0 mg/kg/injection, schedule: Q01DX001 (ip), vehicle: Klucel (hydroxypropylcellulose) (HPC)
  T/C: 87 % of control
dose: 200.0 mg/kg/injection, schedule: Q01DX001 (ip), vehicle: Klucel (hydroxypropylcellulose) (HPC)
  T/C: 91 % of control
dose: 400.0 mg/kg/injection, schedule: Q01DX001 (ip), vehicle: Klucel (hydroxypropylcellulose) (HPC)
  T/C: 87 % of control

## O=c1c(/C=C\Nc2ccccc2)c(-c2ccccc2)c1=O
dose: 100.0 mg/kg/injection, schedule: Q01DX001 (ip), vehicle: saline with Tween-80
  T/C: 100 % of control
[1]
  T/C: 92 % of control
[2]
  T/C: 92 % of control

## c1ccc2c(NCC3CCN(c4c5ccccc5nc5ccccc45)CC3)c3ccccc3nc2c1
dose: 25.0 mg/kg/injection, schedule: Q04DX002 (ip), vehicle: saline with Tween-80
  T/C: 118 % of control
dose: 50.0 mg/kg/injection, schedule: Q04DX002 (ip), vehicle: saline with Tween-80
  T/C: 117 % of control
dose: 100.0 mg/kg/injection, schedule: Q04DX002 (ip), vehicle: saline with Tween-80
  T/C: 111 % of control

## CCCCCCCCCCC(=O)CC
[3]
  T/C: 104 % of control
[4]
  T/C: 100 % of control
dose: 200.0 mg/kg/injection, schedule: Q01DX009 (ip), vehicle: saline with Tween-80
  T/C: 104 % of control
[5]
  T/C: 100 % of control
dose: 400.0 mg/kg/injection, schedule: Q01DX009 (ip), vehicle: saline with Tween-80
  T/C: 109 % of control
[6]
  T/C: 100 % of control

## C=C(C)/C=N/O
[7]
  T/C: 113 % of control
[8]
  T/C: 104 % of control
[9]
  T/C: 106 % of control

## O=C1OCC2(C(=O)O)C(=O)OCC12 (configuration not stated)
dose: 8.0 mg/kg/injection, schedule: Q01DX009 (ip), vehicle: saline with Tween-80
  T/C: 94 % of control
dose: 16.0 mg/kg/injection, schedule: Q01DX009 (ip), vehicle: saline with Tween-80
  T/C: 105 % of control and 108 % of control
dose: 32.0 mg/kg/injection, schedule: Q01DX009 (ip), vehicle: saline with Tween-80
  T/C: 107 % of control
dose: 64.0 mg/kg/injection, schedule: Q01DX009 (ip), vehicle: saline with Tween-80
  T/C: 100 % of control and 108 % of control
dose: 128.0 mg/kg/injection, schedule: Q01DX009 (ip), vehicle: saline with Tween-80
  T/C: 97 % of control

## CCOC(=O)c1cnn(C)c1N
dose: 66.7 mg/kg/injection, schedule: Q01DX009 (ip), vehicle: saline with Tween-80
  T/C: 97 % of control
[3]
  T/C: 110 % of control
dose: 150.0 mg/kg/injection, schedule: Q01DX009 (ip), vehicle: saline with Tween-80
  T/C: 105 % of control

## N#CC1C(=O)NC(=S)NC1c1ccc(Cl)c(Cl)c1 (configuration not stated)
dose: 50.0 mg/kg/injection, schedule: Q01DX009 (ip), vehicle: Klucel (hydroxypropylcellulose) (HPC)
  T/C: 100 % of control
dose: 100.0 mg/kg/injection, schedule: Q01DX009 (ip), vehicle: Klucel (hydroxypropylcellulose) (HPC)
  T/C: 95 % of control
dose: 200.0 mg/kg/injection, schedule: Q01DX009 (ip), vehicle: Klucel (hydroxypropylcellulose) (HPC)
  T/C: 95 % of control

## NC1=C(O)C(=O)C(c2ccc3c(c2)OCO3)O1 (configuration not stated)
dose: 60.0 mg/kg/injection, schedule: Q01DX005 (ip), vehicle: Klucel (hydroxypropylcellulose) (HPC)
  T/C: 92 % of control
dose: 120.0 mg/kg/injection, schedule: Q01DX005 (ip), vehicle: Klucel (hydroxypropylcellulose) (HPC)
  T/C: 95 % of control
dose: 240.0 mg/kg/injection, schedule: Q01DX005 (ip), vehicle: Klucel (hydroxypropylcellulose) (HPC)
  T/C: 91 % of control

## CCCCS(=O)CC(CO)NC(=O)/C=C/c1c(C)[nH]c(=O)[nH]c1=O (configuration not stated)
dose: 0.08 mg/kg/injection, schedule: Q01DX009 (ip), vehicle: Klucel (hydroxypropylcellulose) (HPC)
  T/C: 89 % of control
dose: 0.15 mg/kg/injection, schedule: Q01DX009 (ip), vehicle: Klucel (hydroxypropylcellulose) (HPC)
  T/C: 86 % of control
dose: 0.3 mg/kg/injection, schedule: Q01DX009 (ip), vehicle: Klucel (hydroxypropylcellulose) (HPC)
  T/C: 103 % of control
dose: 0.6 mg/kg/injection, schedule: Q01DX009 (ip), vehicle: Klucel (hydroxypropylcellulose) (HPC)
  T/C: 112 % of control
dose: 0.6 mg/kg/injection, schedule: Q01DX009 (ip), vehicle: water
  T/C: 122 % of control
dose: 4.8 mg/kg/injection, schedule: Q01DX009 (ip), vehicle: water
  T/C: 153 % of control
dose: 5.0 mg/kg/injection, schedule: Q01DX009 (ip), vehicle: water
  T/C: 161 % of control

## O=[N+]([O-])/C=C/c1c[nH]c2c1ccc1ccccc12
dose: 100.0 mg/kg/injection, schedule: Q01DX005 (ip), vehicle: saline with Tween-80
  T/C: 86 % of control
dose: 200.0 mg/kg/injection, schedule: Q01DX005 (ip), vehicle: saline with Tween-80
  T/C: 94 % of control

## Cc1ccc(N2CC3CC4(C)C=CC3(C2)O4)cc1 (configuration not stated)
[10]
  T/C: 103 % of control
[11]
  T/C: 111 % of control
dose: 240.0 mg/kg/injection, schedule: Q01DX005 (ip), vehicle: saline with Tween-80
  T/C: 98 % of control

## Cn1cnc2c1c(=O)n(C(C(N)=O)C(N)=O)c(=O)n2C
[1]
  T/C: 104 % of control
[2]
  T/C: 101 % of control

## CCOC(=O)c1ccccc1NC(=O)C1C2C=CC(C2)C1C(=O)O (configuration not stated)
dose: 50.0 mg/kg/injection, schedule: Q01DX009 (ip), vehicle: saline + alcohol
  T/C: 103 % of control
dose: 100.0 mg/kg/injection, schedule: Q01DX009 (ip), vehicle: saline + alcohol
  T/C: 104 % of control
dose: 200.0 mg/kg/injection, schedule: Q01DX009 (ip), vehicle: saline + alcohol
  T/C: 97 % of control

## CCCN1CN2CCOC2C(C)(C)C1 (configuration not stated)
dose: 40.0 mg/kg/injection, schedule: Q01DX009 (ip), vehicle: saline with Tween-80
  T/C: 112 % of control
dose: 80.0 mg/kg/injection, schedule: Q01DX009 (ip), vehicle: saline with Tween-80
  T/C: 114 % of control

## CN1CCC(CNC(=O)CCCCCCCCC(=O)NCC2(c3ccccc3)CCN(C)CC2)(c2ccccc2)CC1
dose: 0.39 mg/kg/injection, schedule: Q01DX009 (ip), vehicle: saline
  T/C: 100 % of control
dose: 0.78 mg/kg/injection, schedule: Q01DX009 (ip), vehicle: saline
  T/C: 96 % of control
dose: 1.56 mg/kg/injection, schedule: Q01DX009 (ip), vehicle: saline
  T/C: 105 % of control
dose: 3.12 mg/kg/injection, schedule: Q01DX009 (ip), vehicle: saline
  T/C: 111 % of control

## COc1cc(-c2ccc(NC(=O)CC(C)=O)c(OC)c2)ccc1NC(=O)CC(C)=O
[4]
  T/C: 100 % of control
[5]
  T/C: 100 % of control
[6]
  T/C: 90 % of control

## O=c1[nH]cc(Cn2cccc3c(=O)ncnc2-3)c(=O)[nH]1
dose: 100.0 mg/kg/injection, schedule: Q01DX001 (ip), vehicle: suspension in saline
  T/C: 93 % of control
dose: 200.0 mg/kg/injection, schedule: Q01DX001 (ip), vehicle: suspension in saline
  T/C: 102 % of control

## CCC(=NCCN=C(CC)c1cc(C)ccc1O)c1cc(C)ccc1O
[7]
  T/C: 101 % of control
[8]
  T/C: 108 % of control
[9]
  T/C: 111 % of control

## Cn1ccn(C)c1=S
[12]
  T/C: 107 % of control
[13]
  T/C: 97 % of control
dose: 200.0 mg/kg/injection, schedule: Q01DX009 (ip), vehicle: saline
  T/C: 101 % of control

## O=P(O)(O)O.[Cr+3].[NH-]CC[NH-].[NH-]CC[NH-].[NH-]CC[NH-]
dose: 25.0 mg/kg/injection, schedule: Q01DX009 (ip), vehicle: saline
  T/C: 101 % of control
[12]
  T/C: 97 % of control
[13]
  T/C: 99 % of control

## CC1CCCC/C1=N\N(C)C (configuration not stated)
[10]
  T/C: 100 % of control
[11]
  T/C: 94 % of control
